Data from patent publication US8524978B2, “Composition for production of plant body having improved sugar content, and use thereof” (Japan Science and Technology Agency, priority 2007, dated 2013).

Experiments:
Prunus avium (Napoleon) = test: Sugar content determination of Prunus avium fruit with refractometer (Example 8); type: in vivo; conditions: leaf surface coated with 0.5 mM 4 and 3 weeks before harvest; vs no GSSG; ANOVA 5%
Method: In the present example, Prunus avium was cultivated. Specifically, 4 weeks and 3 weeks before an expected date of harvesting Prunus avium (Napoleon) fruit, a surface of a leaf on a branch having the fruit to be harvested was coated with 0.5 mM GSSG. The fruit was harvested on the expected date.
Next, the fruit harvested was subjected to a sensory test of sugar content. As a result, it was determined that the fruit applied with GSSG increased in sugar content and decreased in acidity. Further, it was determined that the fruit applied with GSSG increased in weight. Furthermore, the fruit obtained was subjected to sugar content determination using “Pocket” Refractometer APAL-1 (ATAGO CO., LTD.). For comparison, fruit applied with no GSSG was also subjected to the sugar content determination. […] In FIG. 5, the vertical scale indicates sugar content (Brix, unit: %).

[1] = system: Zea mays L. var. saccharata Sturt; test: Cultivation of Zea mays L. var. saccharata Sturt with GSSG leaf spray, sensory test (Example 11); type: in vivo
Text: In the present example, Zea mays L. var. saccharata Sturt was cultivated. First, a Zea mays L. var. saccharata Sturt seed (TAKII & CO. Ltd., product number: Canberra 86) was sown in vermiculite (ASAHI INDUSTRIES Co., LTD.). Two weeks after sowing, a Zea mays L. var. saccharata Sturt plant was transplanted to a hydroponic culture pot described in Example 1. To the plant, 3 g of Kumiai phosphorate ammonium nitrate potassium S-604 (Chisso Asahi Fertilizer Co., Ltd.) was applied as an additional fertilizer 4 weeks and 6 weeks after the sowing.
In the 5th, 6th, 7th, and 8th week after the sowing, 0.5 mM GSSG (dissolved in 0.1% Tween80 serving as a spreading agent) was sprayed onto a leaf surface. For comparison, a Zea mays L. var. saccharata Sturt plant was cultivated by the same method as in the present example, except that Tween80, but not GSSG, was applied, and fruit thereof was harvested.
Fruit was harvested 86 days after the sowing and subjected to a sensory test of sugar content. As a result, it was determined that fruit of the plant applied with GSSG increased in sugar content compared to that of the plant applied with no GSSG. Further, the fruit obtained was subjected to sugar content determination using “Pocket” Refractometer APAL-1 (ATAGO CO., LTD.). For comparison, the fruit of the plant applied with no GSSG was also subjected to the sugar content determination. […] In FIG. 8, the vertical scale indicates sugar content (Brix, unit: %).
It was also determined that the plant applied with GSSG increased in size and number of fruit. Further, it was determined that the fruit of the plant applied with GSSG was already able to be harvested 70 days after the sowing.

[2] = 0.5 mM in 0.1% Tween80 sprayed onto leaf surface in weeks 5-8

oxidized glutathione [GSSG]
sugar content of fruit (Brix) (Prunus avium (Napoleon)): significantly improved | number of fruit [1, 2]: increased | size of fruit [1, 2]: increased | time at which fruit was already able to be harvested [1, 2]: 70 days after the sowing | sugar content of fruit (sensory test) ([1]; 0.5 mM in 0.1% Tween80 sprayed onto leaf surface in weeks 5-8 after sowing, harvest 86 days, vs Tween80 only): increased
